From US10443089B2, “Methods of multiplexing DNA sensors and localizing DNA sensor” (NATIONAL CENTRE FOR BIOLOGICAL SCIENCES (NCBS-TIFR), priority 2013, dated 2019)
“Also recorded” adds a separate entry of the source.

Legend:
[1] = test system: scFv-furin expressing IA2.2 cells; assay: SimpHony of early endosomes and TGN with and without Brefeldin A; type: cell-based, Chinese Hamster; conditions: BFA 20 μg/mL, 10 min
Text: SimpHony is applied on BFA-induced tubules positive for furin marked by I^FuA546/A647 while simultaneously marking transferrin containing endosomes with Tf-I^TfA488/A647. BFA treated cells show tubular extensions emerging from compartments localize near the MTOC (FIG. 18a). Tf-I^TfA488/A647 in these cells occupies the excluded space of I^FuA546/A647 in the region around the MTOC in addition to a few cytoplasmic endosomes (FIG. 19b).
FIG. 19 depicts localization of Tf-I^Tf and I^Fu DNA sensors in compartments after BFA treatment. scFv-Furin expressing IA2.2 cells are pulsed with about 500 nM I^FuA546/647 for 2 hours and chased for 30 min in presence of CHX followed by absence (a) or presence (b) of BFA (about 20 μg/mL) treatment of about 10 min at about 37° C. Cells are pulsed with about 500 nM Tf-I^TfA488/A647 in presence of BFA and CHX to label early endosomes. Arrowheads show MTOC. Scale Bar: 10 μm.
FIG. 22 describes the pH heterogeneity of early endosomes and TGN, pre and post treatment with BFA. IA2.2 cells are pulsed with about 500 nM IFuA546/A647 for about 2 hours and chased for 30 min in presence of about 125 ug/ml CHX followed by absence or presence of BFA (about 20 μg/mL) treatment of about 10 min at about 37° C. Cells are further treated with about 500 nM Tf-ITfA488/A647 in presence of about 20 μg/mL BFA and about 125 ug/ml CHX to label early endosomes.

[2] = test system: IA2.2 cells expressing scFv-furin; assay: SimpHony of early and late endosomes with and without Dynasore; type: cell-based, Chinese Hamster
Procedure: The DNA sensor of the present disclosure is applied to this system, by marking early endosomes with about 500 nM Tf-I^TfA488/A647 and late endosomes with about 500 nM I^FuA546/A647 in the presence and absence of Dynasore. I^n the absence of Dynasore, early endosomes undergo active fusion and fission; showing an average pH of about 6.05±0.07 (FIG. 17) while the late endosomes show an average pH of about 5.43±0.3.
FIG. 17 depicts Dynasore mediated arrest of endosomal fission. Early/sorting and late endosomes in IA2.2 cells expressing scFv-furin are marked with about 500 nM Tf-I^TfA488/A647 at 37° C. for 10 min. Time lapse images of control cells (−Dy) where no dynasore is added, (+Dy) in presence of about 160 μM dynasore and (W) after dynasore is washed out and incubated for about 10 min at about 37° C. for recovery. Images are acquired with a time interval of about 2 s over 2 min period and compressed to a movie playing at 7 fps.

[3] = Comparison of DNA pH sensors with pH sensitive organic dyes and GFP based probes; conditions: for Working regime: pH
[4] = test system: DNA epitopes ssDNA, dsDNA, R1, R2, RM; assay: ELISA screen of scFv clones for sequence specific binding to DNA epitopes; conditions: epitopes R1, R2, RM of the 35 bp dsDNA; listed as C1
Procedure: The 35 bp dsDNA is divided into three regions: • (i) One region is composed of 13 bp of the antigen from the 3′ end (known as Region 1 (R1), FIG. 6a, red), • (ii) the second region corresponds to base pairs 16 to 28 from 3′ end (Region 2 (R2), FIG. 6a, green) and • (iii) the third region is an overlap of regions 1 and 2 (Region M (RM), FIG. 6a, blue).
These three duplexes are annealed and then immobilized on three different 96-well plates. scFv supernatant of the same clones is added to the wells and incubated as described earlier. […] Thus, the scFvs corresponding to these clones recognize only the first 8 base pairs of the 35 bp dsDNA i.e., the sequence d(AT)4.
In order to screen for sequence specificity of binding to duplex DNA, each of the selected clones are similarly assayed by ELISA to a set of surface-immobilized DNA scaffolds. These correspond to a single stranded DNA sequence comprising only the biotinylated strand of the 35 bp dsDNA the 35 bp dsDNA duplex (dsDNA), and three shorter duplex regions R1, R2 and RM corresponding to various sections on the 35 bp dsDNA duplex. R1 corresponds to a […] region at the 3′ terminus of the biotinylated ssDNA oligonucleotide, R2 correspond to a 13 bp region abutting R1, while RM corresponded to a 13 bp region overlapping the 5′ end of R1 and the 3′ of R2. […]

35 bp dsDNA tag, d(AT)4 = assay: Competitive ELISA, binding affinity of purified scFv to immobilized dsDNA
Procedure: The binding affinity of this scFv with the 35 bp DNA duplex is assayed using competitive ELISA that is performed using a fixed amount of immobilized dsDNA (25 pmoles) followed by the addition of a fixed concentration of scFv (200 nM) in the presence of an increasing concentration of unlabeled dsDNA (I^comp, about 10 nM to about 1 μM) in solution.
This experiment is carried out to find strength of binding of clone C1 with DNA. The affinity and specificity of scFv is analyzed by ELISA after purifying the scFv. Streptavidin-coated 96-well plate is incubated with dsDNA epitope used for screening in 5×SSCT (about 75 mM Sodium citrate, about 750 mM NaCl, about 0.05% Tween-20) for about 1.5 hours for immobilization of dsDNA onto the Streptavidin-coated 96-well plate.
For competition experiments, dsDNA immobilized onto Streptavidin-coated 96-well plate is incubated with the mixture of increasing amount of (from 0 to 10 micromoles) of competing nucleic acid, purified scFv (about 200-300 nM) and 1 in 1000 dilution of anti myc-tag antibody for about 1.5 hours at room temperature. […] Bound scFvs are detected by addition of 100 microliters of 2×TMB/H202 and OD at 450 nm is recorded and normalized with respect to the well where no competitor is added. […]

**Q.** Which “morphology of furin containing compartments” value [1] does the source give for `C[C@H]1CCC/C=C/[C@@H]2C[C@H](O)C[C@H]2[C@H](O)/C=C/C(=O)O1` [Brefeldin A] here?
**A.** tubulate extensively

**Q.** With `O=C(N/N=C/c1ccc(O)c(O)c1)c1cc2ccccc2cc1O` [Dynasore] as the molecule, how does the “average pH of early endosomes after wash out” value ([2]; Dynasore washed out) read?
**A.** completely restored

**Q.** And the “early endosome morphology and dynamics” value ([2]; presence of 160 μM dynasore)?
**A.** extensive tubulation of the early endosomes as well as their arrested dynamics

**Q.** For `O=C1OC2(c3cc(F)c(O)cc3Oc3cc(O)c(F)cc32)c2ccccc21` [Oregon green 488], which pKa [3] is on record?
**A.** 4.7

**Q.** And the Working regime [3]?
**A.** 4.0-5.0

**Q.** Which Working regime [3] does the source give for Fluorescein (FITC) here?
**A.** 5-8

B1: clone C1: scFv recombinant antibody from phage display binding dsDNA sequence d(AT)4; SEQ ID No. 16 (protein)
scFv: MAEVQLLESGGGLVQPGGSLRLSCAASGFTFSSYAMSWVRQAPGKGLEWVSTITKRGERTKYADSVKGRFTISRDNSKNTLYLQMNSLRAEDTAVYYCAKSTRAFDYWGQGTLVTVSSGGGGSGGGGSGGGGSTDIQMTQSPSSLSASVGDRVTITCRASQSISSYLNWYQQKPGKAPKLLIYGASYLQSGVPSRFSGSGSGTDFTLTISSLQPEDFATYYCQQTRFSPNTFGQGTKVEIKRAAAHHHHHHGAAEQKPISEEDLNGAAGGD
modifications: scFv Protein Sequence; DNA_BIND (1)..(271)
**Q.** Which results are given for B1?
**A.** DNA epitope specificity by ELISA [4]: binding to R1 and no other region; also recorded: binds a DNA sequence ATATATAT; relative binding constant (35 bp dsDNA tag, d(AT)4; 25 pmoles immobilized dsDNA, 200 nM scFv, competitor I^comp 10 nM to 1 μM): about 1.25×10^7 M^−1; Kd (35 bp dsDNA tag, d(AT)4; 35 bp DNA duplex / d(AT)4): 80 nM
